US20250144067A1, “PERSONALIZED STARVATION THERAPY FOR CANCER” (Faeth Therapeutics, Inc., priority 2021, published 2025)
Counter-ions that a name gives are not always drawn. Like-named read-outs stand apart in the source and are kept apart here.

Legend:
[1] = system: NCI-H292 lung cancer cells; experiment: FDA drug screening, complete media vs cholesterol-free media with simvastatin (TABLE 2); assay type: cell-based, human
[2] = system: NCI-H292 lung cancer cells; experiment: FDA drug screening, complete media vs cholesterol-free media without statin (TABLE 1); assay type: cell-based, human
[3] = NCI-H292 cells, FDA drug library screen, cholesterol-free media with simvastatin 0.04 μM
[4] = NCI-H292 cells, FDA drug library screen, complete media
[5] = complete media minus cholesterol-free media + simvastatin, >0 enhanced anti-cancer activity, about 0 neutral, <0 antagonist
[6] = Complete minus Cholesterol-free, greater than 0 enhanced anti-cancer activity, about 0 neutral, below 0 antagonist
[7] = NCI-H292 cells, FDA drug library screen, cholesterol-free media without statin
[8] = complete media vs cholesterol-free media + simvastatin (0.04 μM), >0 enhanced anti-cancer activity, about 0 neutral, <0 antagonist
[9] = NCI-H292 cells, cholesterol-free media without statin
[10] = complete vs cholesterol-free media, greater than 0 enhanced anti-cancer activity, about 0 neutral, below 0 antagonists
[11] = NCI-H292 cells, cholesterol-free media with simvastatin 0.04 μM, cell growth value in FDA drug screen
[12] = NCI-H292 cells, complete media, cell growth value in FDA drug screen
[13] = Complete minus Cholesterol-free, >0 enhanced anti-cancer activity, about 0 neutral, <0 antagonist
[14] = NCI-H292 cells, cholesterol-free media without statin, FDA drug library screen
[15] = NCI-H292 cells, complete media, FDA drug library screen
[16] = complete vs cholesterol-free media, >0 enhanced anti-cancer activity, about 0 neutral, <0 antagonist
[17] = NCI-H292 cells, FDA library drug in cholesterol-free media with simvastatin 0.04 μM
[18] = NCI-H292 cells, FDA library drug in complete media
[19] = complete media vs cholesterol-free media + simvastatin (0.04 μM), […]
[20] = Complete minus Cholesterol-free, […]
[21] = NCI-H292 cells in cholesterol-free media without statin
[22] = NCI-H292 cells in complete media
[23] = complete vs cholesterol-free media, […]
[24] = NCI-H292 cells, drug in cholesterol-free media with simvastatin 0.04 μM
[25] = NCI-H292 cells, drug in complete media
[26] = Complete minus Cholesterol-free, greater than 0 enhanced anti-cancer activity, about 0 neutral, below 0 antagonists
[27] = NCI-H292 cells, cholesterol-free media with simvastatin 0.04 μM, FDA drug library screen (TABLE 2)
[28] = NCI-H292 cells, complete media, FDA drug library screen (TABLE 2)

Oc1cccc(-c2c3nc(c(-c4cccc(O)c4)c4ccc([nH]4)c(-c4cccc(O)c4)c4nc(c(-c5cccc(O)c5)c5ccc2[nH]5)CC4)C=C3)c1 [Temoporfin]
Cholesterol-free media + simvastatin (0.04 μM) [1, 3]: 0.6286
Complete Media [1, 4]: 0.9208
Difference [1, 5]: 0.29
Difference [2, 6]: −0.10
Cholesterol-free [2, 7]: 0.848
Complete [2, 4]: 0.7514

Cn1nnc2c(C(N)=O)ncn2c1=O [Temozolomide]
Cholesterol-free media + simvastatin (0.04 μM) [1, 3]: 0.984
Complete Media [1, 4]: 0.8242
Difference [1, 8]: −0.16
Cholesterol-free [2, 9]: 1.265
Complete ([2]; NCI-H292 cells, complete media): 0.9503
Difference [2, 10]: −0.31

CO[C@H]1C[C@@H]2CC[C@@H](C)[C@@](O)(O2)C(=O)C(=O)N2CCCC[C@H]2C(=O)O[C@H]([C@H](C)C[C@@H]2CC[C@@H](OC(=O)C(C)(CO)CO)[C@H](OC)C2)CC(=O)[C@H](C)/C=C(\C)[C@@H](O)[C@@H](OC)C(=O)[C@H](C)C[C@H](C)/C=C/C=C/C=C/1C [Temsirolimus]
Cholesterol-free media + simvastatin (0.04 μM) [1, 11]: 0.4472
Complete Media [1, 12]: 0.5571
Difference [1, 5]: 0.11
Difference [2, 13]: −0.06
Cholesterol-free [2, 14]: 0.4176
Complete [2, 15]: 0.3544

CN1Cc2c(Cl)cc(Cl)cc2[C@H](c2cccc(S(=O)(=O)NCCOCCOCCNC(=O)NCCCCNC(=O)NCCOCCOCCNS(=O)(=O)c3cccc([C@@H]4CN(C)Cc5c(Cl)cc(Cl)cc54)c3)c2)C1 [Tenapanor]
Cholesterol-free media + simvastatin (0.04 μM) [1, 11]: 1.602
Complete Media [1, 12]: 1.62
Difference [1, 5]: 0.02
Cholesterol-free [2, 14]: 0.6884
Complete [2, 15]: 0.8628
Difference [2, 16]: 0.17

Cc1cc(N2CCN([C@@H]3CN[C@H](C(=O)N4CCSC4)C3)CC2)n(-c2ccccc2)n1 [Teneligliptin (hydrobromide)]
Cholesterol-free media + simvastatin (0.04 μM) [1, 17]: 1.564
Complete Media [1, 18]: 1.115
Difference [1, 19]: −0.45
Difference [2, 20]: −0.56
Cholesterol-free [2, 21]: 1.45
Complete [2, 22]: 0.8858

Cc1cc(N2CCN([C@@H]3CN[C@H](C(=O)N4CCSC4)C3)CC2)n(-c2ccccc2)n1 [Teneligliptin]
Cholesterol-free media + simvastatin (0.04 μM) [1, 3]: 0.6861
Complete Media [1, 4]: 1.012
Difference ([1]; complete media minus cholesterol-free media + simvastatin, […]): 0.33
Cholesterol-free [2, 9]: 1.328
Complete ([2]; NCI-H292 cells, complete media): 0.9852
Difference [2, 23]: −0.34

COc1cc([C@@H]2c3cc4c(cc3[C@@H](O[C@@H]3O[C@@H]5CO[C@@H](c6cccs6)O[C@H]5[C@H](O)[C@H]3O)[C@H]3COC(=O)[C@H]23)OCO4)cc(OC)c1O [Teniposide]
Cholesterol-free media + simvastatin (0.04 μM) [1, 24]: 0.3807
Complete Media [1, 25]: 0.1883
Difference [1, 8]: −0.19
Difference [2, 6]: −0.09
Cholesterol-free [2, 7]: 0.1831
Complete [2, 4]: 0.09739

CC(C)OC(=O)OCOP(=O)(CO[C@H](C)Cn1cnc2c(N)ncnc21)OCOC(=O)OC(C)C.O=C(O)/C=C/C(=O)O [Tenofovir (Disoproxil Fumarate)]
Cholesterol-free media + simvastatin (0.04 μM) [1, 17]: 1.321
Complete Media [1, 18]: 0.7221
Difference [1, 8]: −0.60
Cholesterol-free [2, 9]: 1.163
Complete ([2]; NCI-H292 cells, complete media): 0.7425
Difference [2, 10]: −0.42

CC(C)OC(=O)OCOP(=O)(CO[C@H](C)Cn1cnc2c(N)ncnc21)OCOC(=O)OC(C)C [Tenofovir (Disoproxil)]
Cholesterol-free media + simvastatin (0.04 μM) [1, 17]: 1.242
Complete Media [1, 18]: 0.9076
Difference [1, 8]: −0.33
Difference [2, 26]: −0.65
Cholesterol-free [2, 21]: 1.348
Complete [2, 22]: 0.7009

C[C@H](Cn1cnc2c(N)ncnc21)OCP(=O)(O)O.O [Tenofovir (hydrate)]
Cholesterol-free media + simvastatin (0.04 μM) [1, 3]: 1.824
Complete Media [1, 4]: 2.099
Difference [1, 5]: 0.27
Cholesterol-free [2, 14]: 0.8777
Complete [2, 15]: 1.281
Difference [2, 16]: 0.40

CC(C)OC(=O)[C@H](C)N[P@](=O)(CO[C@H](C)Cn1cnc2c(N)ncnc21)Oc1ccccc1 [Tenofovir alafenamide fumarate]
Cholesterol-free media + simvastatin (0.04 μM) [1]: 0.9223
Complete Media [1]: 0.8712
Difference [1]: −0.05
Cholesterol-free [2]: 0.8261
Complete [2]: 0.7078
Difference [2]: −0.12

CC(C)OC(=O)[C@H](C)N[P@](=O)(CO[C@H](C)Cn1cnc2c(N)ncnc21)Oc1ccccc1 [Tenofovir alafenamide]
Cholesterol-free media + simvastatin (0.04 μM) [1]: 0.7269
Complete Media [1]: 0.65
Difference [1]: −0.08
Cholesterol-free [2]: 1.21
Complete [2]: 0.7227
Difference [2]: −0.49

C[C@H](Cn1cnc2c(N)ncnc21)OCP(=O)(O)O [Tenofovir]
Cholesterol-free media + simvastatin (0.04 μM) [1, 3]: 0.8374
Complete Media [1, 4]: 1.066
Difference [1, 5]: 0.23
Difference [2, 26]: −0.62
Cholesterol-free [2, 21]: 1.637
Complete [2, 22]: 1.013

CN1C(C(=O)Nc2ccccn2)=C(O)c2sccc2S1(=O)=O [Tenoxicam]
Cholesterol-free media + simvastatin (0.04 μM) [1, 3]: 0.6836
Complete Media [1, 4]: 0.8819
Difference [1, 5]: 0.20
Cholesterol-free [2, 9]: 1.354
Complete ([2]; NCI-H292 cells, complete media): 0.9821
Difference [2, 10]: −0.37

COc1cc2nc(N3CCN(C(=O)C4CCCO4)CC3)nc(N)c2cc1OC (stereo not drawn) [Terazosin (hydrochloride dihydrate)]
Cholesterol-free media + simvastatin (0.04 μM) [1, 27]: 1.029
Complete Media [1, 28]: 0.9806
Difference ([1]; complete media minus cholesterol-free media + simvastatin (0.04 μM), >0 enhanced anti-cancer activity, about 0 neutral, <0 antagonist): −0.05
Difference [2, 13]: −0.06
Cholesterol-free [2, 14]: 0.8804
Complete [2, 15]: 0.821

CN(C/C=C/C#CC(C)(C)C)Cc1cccc2ccccc12 [Terbinafine hydrochloride]
Cholesterol-free media + simvastatin (0.04 μM) [1, 3]: 1.241
Complete Media [1, 4]: 1.124
Difference [1, 8]: −0.12
Difference [2, 26]: −0.57
Cholesterol-free [2, 21]: 1.793
Complete [2, 22]: 1.222

CN(C/C=C/C#CC(C)(C)C)Cc1cccc2ccccc12 [Terbinafine]
Cholesterol-free media + simvastatin (0.04 μM) [1, 3]: 1.066
Complete Media [1, 4]: 0.9483
Difference [1, 8]: −0.12
Cholesterol-free [2, 14]: 1.229
Complete [2, 15]: 1.421
Difference [2, 16]: 0.19

CC(C)N1CCN(c2ccc(OCC3COC(Cn4cncn4)(c4ccc(Cl)cc4Cl)O3)cc2)CC1 (stereo not drawn) [Terconazole]
Cholesterol-free media + simvastatin (0.04 μM) [1, 3]: 0.6294
Complete Media [1, 4]: 1.003
Difference [1, 5]: 0.37
Cholesterol-free [2, 14]: 1.052
Complete [2, 15]: 1.158
Difference [2, 16]: 0.11

CC(C)(C)c1ccc(C(O)CCCN2CCC(C(O)(c3ccccc3)c3ccccc3)CC2)cc1 (stereo not drawn) [Terfenadine]
Cholesterol-free media + simvastatin (0.04 μM) [1, 11]: 0.9762
Complete Media [1, 12]: 1.013
Difference [1, 5]: 0.04
Cholesterol-free [2, 9]: 1.145
Complete ([2]; NCI-H292 cells, complete media): 0.8219
Difference [2, 10]: −0.32

C/C(O)=C(\C#N)C(=O)Nc1ccc(C(F)(F)F)cc1 [Teriflunomide]
Cholesterol-free media + simvastatin (0.04 μM) [1, 17]: 1.712
Complete Media [1, 18]: 0.9665
Difference [1, 8]: −0.75
Difference [2, 6]: −0.16
Cholesterol-free [2, 7]: 1.092
Complete [2, 4]: 0.9318

CC[C@H](C)[C@H](NC(=O)[C@H](CCC(=O)O)NC(=O)[C@H](CO)NC(=O)[C@@H](NC(=O)[C@@H](N)CO)C(C)C)C(=O)N[C@@H](CCC(N)=O)C(=O)N[C@@H](CC(C)C)C(=O)N[C@@H](CCSC)C(=O)N[C@@H](Cc1cnc[nH]1)C(=O)N[C@@H](CC(N)=O)C(=O)N[C@@H](CC(C)C)C(=O)NCC(=O)N[C@@H](CCCCN)C(=O)N[C@@H](Cc1cnc[nH]1)C(=O)N[C@@H](CC(C)C)C(=O)N[C@@H](CC(N)=O)C(=O)N[C@@H](CO)C(=O)N[C@@H](CCSC)C(=O)N[C@@H](CCC(=O)O)C(=O)N[C@@H](CCCN=C(N)N)C(=O)N[C@H](C(=O)N[C@@H](CCC(=O)O)C(=O)N[C@@H](Cc1c[nH]c2ccccc12)C(=O)N[C@@H](CC(C)C)C(=O)N[C@@H](CCCN=C(N)N)C(=O)N[C@@H](CCCCN)C(=O)N[C@@H](CCCCN)C(=O)N[C@@H](CC(C)C)C(=O)N[C@@H](CCC(N)=O)C(=O)N[C@@H](CC(=O)O)C(=O)N[C@H](C(=O)N[C@@H](Cc1cnc[nH]1)C(=O)N[C@@H](CC(N)=O)C(=O)N[C@@H](Cc1ccccc1)C(=O)O)C(C)C)C(C)C [Teriparatide]
Cholesterol-free media + simvastatin (0.04 μM) [1, 27]: 1.048
Complete Media [1, 28]: 1.02
Difference ([1]; complete media minus cholesterol-free media + simvastatin (0.04 μM), […]): −0.03
Difference [2, 20]: −0.19
Cholesterol-free [2, 7]: 1.061
Complete [2, 4]: 0.8757

CC1(O)CCC(C(C)(C)O)CC1 (stereo not drawn) [Terpin (hydrate)]
Cholesterol-free media + simvastatin (0.04 μM) [1, 24]: 1.474
Complete Media [1, 25]: 1.21
Difference [1, 8]: −0.26
Difference [2, 13]: 0.06
Cholesterol-free [2, 14]: 0.8684
Complete [2, 15]: 0.9288

CCC(=O)O[C@H]1CC[C@H]2[C@@H]3CCC4=CC(=O)CC[C@]4(C)[C@H]3CC[C@]12C [Testosterone propionate]
Cholesterol-free media + simvastatin (0.04 μM) [1, 17]: 1.059
Complete Media [1, 18]: 0.7669
Difference [1, 19]: −0.29
Cholesterol-free [2, 9]: 1.308
Complete ([2]; NCI-H292 cells, complete media): 0.9212
Difference [2, 23]: −0.39
